Test system: human peripheral blood leucocytes
Assay: Migration capability of neutrophils: fMLP in soft agar under hydrogel layer
Format: cell-based
Details: for Number of Cells in Hydrogel of the Invention: 37° C., 3 hours, 10^7 leucocytes applied; for Number of Cells in Soft Agar: microscopically observed
Protocol: Soft agar mediums (prepared by dissolving Nacalai Tesque's soft agar powder in a D′MEM (Dulbecco's Modification Eagle's Medium, by GIBCO, containing 10% FCS (Fetal Calf Serum)) having 0.6% of concentration and each containing 0 M, 10^−6 M, 10^−7 M or 10^−8 M of fMLP (N-formyl-methionyl-leucyl-phenylalanine, molecular weight 437.6, chemotactic peptide, produced by Sigma) were prepared at 42° C. Each medium was put into a polystyrene dish (mfd. by SOMILON) having a diameter of 35 mm in an amount of 1 ml (depth of medium, about 1 mm) each, and gelled therein at room temperature. The hydrogel-forming polymer (TGP-5) of the invention obtained in Production Example 7 was sterilized with EOG in the same manner as in Production Example 4. One g of the polymer was dissolved in 9 g of D′MEM medium at 4° C., and this was put on the above-mentioned soft agar gel in an amount of 0.5 ml (depth of the polymer solution, about 0.5 mm) each, and gelled at room temperature. The sol-gel transition temperature of the hydrogel was 18° C. On the hydrogel layer of the invention, a tissue culture insert (mfd. by NUNC) with a filter having a pore size of 8.0 μm was set, and 0.5 ml of a cell suspension containing 10^7 human peripheral blood leucocytes was put into the insert and set in an incubator at 37° C. This was statically set therein at 37° C. for 3 hours, and then the dish was taken out of the incubator. The dish was cooled on ice, the tissue culture insert was removed, and the hydrogel of the invention was converted into a sol state. The hydrogel of the invention that was liquid with cooling with ice was collected, diluted with physiological saline and centrifuged (3000 rpm, 5 minutes). The precipitated cell were re-suspended in 20 μl of physiological saline, and the number of the cell was counted to thereby determine the number of the neutrophils having moved into the hydrogel of the invention. After the hydrogel of the invention was removed, the number of the cell having moved into the soft agar was microscopically observed, and the result is shown in Table 1.

[1] = fMLP concentration in soft agar 10^−6 M
[2] = fMLP concentration in soft agar 10^−7 M
[3] = fMLP concentration in soft agar 10^−8 M

## CSCC[C@H](NC=O)C(=O)N[C@@H](CC(C)C)C(=O)N[C@@H](Cc1ccccc1)C(=O)O [fMLP, N-formyl-methionyl-leucyl-phenylalanine]
[1]
  Number of Cells in Hydrogel of the Invention: 300
  Number of Cells in Soft Agar: numerous
[2]
  Number of Cells in Hydrogel of the Invention: 17,600
  Number of Cells in Soft Agar: many
[3]
  Number of Cells in Hydrogel of the Invention: 4,740
  Number of Cells in Soft Agar: a few

Source: patent US20060121116A1, “Hydrogel for cell separation and method of separating cells” (priority 2003, published 2006)
